Calls of active or inactive are those of the source. No rule for the calls is given here.
System: LNCaP cell loss, flow cytometry event count, 4 d
Experiment: cytotoxicity in LNCaP prostate cancer cells – cell-based, flow cytometry, event count, cytotoxicity control for prostate cell differentiation activator project, dose response (AID 1197)
Settings: not given

| Compound | EC50 |
| --- | --- |
| COc1ccc2cc3cc(C(=O)Nc4ccccc4N4CCN(C)CC4)oc3nc2c1 | 19.3 µM (inactive) |
| COc1ccc(Nc2nc(N)nc(CN3CCC(Cc4ccccc4)CC3)n2)cc1 | 17 µM (inactive) |
| CCCN(CCC)CCNC(=O)C1CCN(Cc2nc(-c3ccc(Cl)cc3)oc2C)CC1 | 15.7 µM (inactive) |
| Cn1c(=O)cc(OCC(=O)NCCCN2CCN(c3ccccc3F)CC2)c2ccccc21 | 0.101 µM |
| Cc1noc(/C=C/c2ccco2)c1S(=O)(=O)N1CCC(C(=O)N2CCc3ccccc3C2)CC1 | 4.53 µM |
| CCOc1ccc(-c2cc(C(=O)NCCCN3CCN(CC)CC3)c3ccccc3n2)cc1 | 21.7 µM (inactive) |
| Cc1oc(-c2ccc(Cl)cc2)nc1CN1CCC(C(=O)NCCCN2CCOCC2)CC1 | 6.27 µM |
| CCN1CCCC1CNC(=O)C1CCN(Cc2nc(-c3cccc(Br)c3)oc2C)CC1 (stereo not drawn) | 6.68 µM |
| CCc1ccc(-c2nc(CN3CCC(C(=O)NCc4ccc(F)cc4)CC3)c(C)o2)cc1 | 5.17 µM |
| COc1ccccc1N1CCN(Cc2cc(Br)c(O)c3ncccc23)CC1 | 0.351 µM |
| CCN(CCNC(=O)C1CCN(Cc2nc(-c3ccc(Cl)cc3)oc2C)CC1)c1ccccc1 | 8.33 µM |
| CC(C)N1CCC2(CC1)N=C(c1ccc3c(c1)OCO3)CC(c1cc(Cl)ccc1O)N2 (stereo not drawn) | 1.94 µM |
| Cc1cc2c(=O)n(CC(=O)N3CCN(c4ccccc4)CC3)cnc2s1 | 1.61 µM |
| Cn1nc(-c2ccc(Cl)cc2)c2cc(C(=O)NCCCN3CCOCC3)sc21 | 14.5 µM (inactive) |
| COc1ccc(CCN2CCC(Nc3nc4ccccc4n3Cc3ccc(F)cc3)CC2)cc1 | 3.74 µM |
| COc1ccc(-c2cc(C(F)(F)F)nc(N3CCN(Cc4ccccc4)CC3)n2)cc1OC | 0.549 µM |
| COc1ccccc1N1CCN(c2nc3ccccc3nc2C(C#N)C(=O)OC(C)C)CC1 (stereo not drawn) | 2.77 µM |
| COc1ccc(-c2oc3ncn(CCN4CCOCC4)c(=N)c3c2-c2ccc(OC)cc2)cc1 | 0.198 µM |
| Cc1ccc(OCC(O)Cn2c(=N)n(CCN3CCCCC3)c3ccccc32)cc1 (stereo not drawn) | 8.65 µM |
| COc1ccc(-c2noc(-c3cc(Cl)ccc3Cl)n2)cc1OC | 4.83 µM |
| CCN(CCNC(=O)C1CCN(Cc2nc(-c3cccc(Cl)c3)oc2C)CC1)c1ccccc1 | 3.07 µM |

System: not listed separately
Experiment: as above
Settings: LNCaP cell loss, flow cytometry event count, 4 d; at 30 µM (top of the series)

| Compound | event count (lower = more killing) |
| --- | --- |
| Cn1c(C(=O)NCCCN2CCN(c3cccc(Cl)c3)CC2)cc2c(=O)n(C)c3ccccc3c21 | 137% (inactive) |
| CCOc1ccccc1NC(=O)c1nc[nH]c1C(=O)Nc1ccccc1OCC | 257% (inactive) |
| CCN1CCN(c2cc(C)c3cc(NC(=O)c4ccc(Br)o4)ccc3n2)CC1 | 55.2% (inactive) |
| COc1ccc(CCn2c(=N)c(C(=O)NCc3ccco3)cc3c(=O)n4ccccc4nc32)cc1 | 37.8% (inactive) |
| Cc1ccccc1-c1nc(CN2CCC(C(=O)NCCCN3CCOCC3)CC2)c(C)o1 | 109% (inactive) |
| CCn1c(=N)n(CC(O)COc2cccc(C)c2)c2ccccc21 (stereo not drawn) | 275% (inactive) |
| Clc1ccc(COC(Cn2ccnc2)c2ccc(Cl)cc2Cl)cc1 (stereo not drawn) | 223% (inactive) |
| Cc1cc(N2CCN(C)CC2)nc2ccc(NC(=O)c3ccc(Br)o3)cc12 | 422% (inactive) |
| CCOC(=O)c1ccccc1NC(=O)Cn1c(-c2nonc2N)nc2ccccc21 | 116% (inactive) |
| COC(=O)c1cc(-c2ccccc2)sc1NC(=O)c1cc(C)on1 | 394% (inactive) |
| O=c1cc(-c2ccccc2)[nH]c2ccccc12 | 83.8% (inactive) |
| CN1CCN(c2cc3c(c4c2[nH]c2ccccc24)C(=O)CC(C)(C)C3)CC1 | 48.8% (inactive) |
| CCCOc1ccccc1C1CC(=O)Nc2cc3c(cc21)OCO3 (stereo not drawn) | 21.8% (inactive) |
| CCOc1cccc2cc(-c3cn4cc(C)ccc4n3)c(=O)oc12 | 76.2% (inactive) |
| CC1CCCCN1CCNC(=O)c1ccc2c(=O)n(CCc3ccccc3)c(=O)[nH]c2c1 (stereo not drawn) | 191% (inactive) |
| O=S1(=O)C=C(Sc2nc3ccccc3s2)c2ccccc21 | 150% (inactive) |
| COc1ccc(N2CCN(CCCNC(=O)CC3Oc4ccc(C)cc4NC3=O)CC2)cc1 (stereo not drawn) | 343% (inactive) |
| Nc1ccc(-n2ccnc2)cc1 | 282% (inactive) |
| Cc1cc(N2CCN(C)CC2)nc2ccc(NC(=O)c3ccc4c(c3)OCO4)cc12 | 80.5% (inactive) |
| O=C(c1ccccc1)c1ccc(N2CCNCC2)cc1 | 236% (inactive) |
| COc1ccc(Cc2nc(-c3ccc(-n4cccc4)cc3)no2)cc1OC | 104% (inactive) |
| CCCc1cc(-c2n[nH]c(C)c2-c2ccc(C(=O)OCC)o2)c(O)cc1O | 98.2% (inactive) |
| CCN(CC)CCNC(=O)c1cc2c(-c3ccc(Cl)cc3)nn(C)c2s1 | 140% (inactive) |

| Compound | event count (lower = more killing) |
| --- | --- |
| O=C(NCCCN1CCN(c2cccc(Cl)c2)CC1)c1cccc(N2CCCC2=O)c1 | 305% (inactive) |
| CN(CC(O)COc1ccc(OCC(O)CN(C)C2CCCCC2)cc1)C1CCCCC1 (stereo not drawn) | 126% (inactive) |
| Cc1ccc(C)c(N2CCN(CCCNC(=O)Cn3cc4c(n3)CCCCC4)CC2)c1 | 71.8% (inactive) |
| Cc1ccccc1-c1nc(CN2CCC(C(=O)NCc3cccnc3)CC2)c(C)o1 | 295% (inactive) |
| COc1ccc(N2CCN(CCCNC(=O)CCCn3c(=O)[nH]c4ccsc4c3=O)CC2)cc1 | 175% (inactive) |
| CCN1CCN(C(c2cccs2)C(C)NS(=O)(=O)c2ccc(Br)cc2)CC1 (stereo not drawn) | 282% (inactive) |
| CC(C)(C)c1ccc(C(O)CCCN2CCC(C(O)(c3ccccc3)c3ccccc3)CC2)cc1 (stereo not drawn) | 23.5% (inactive) |
| COc1cc2nc(N3CCN(C(=O)C4COc5ccccc5O4)CC3)nc(N)c2cc1OC (stereo not drawn) | 104% (inactive) |
| COc1ccccc1NC(=O)c1nc[nH]c1C(=O)Nc1ccccc1OC | 87.2% (inactive) |
| CCN(CC)CCCNC(=O)c1cc2c(-c3ccc(Cl)cc3)nn(C)c2s1 | 22.2% (inactive) |
| CCN(CC)CC(=O)Nc1ccc(-c2nc3cc(NC(=O)CN(CC)CC)ccc3o2)cc1 | 98.5% (inactive) |
| Oc1c(CN2CCCCC2)cc(COCc2ccccc2)c2cccnc12 | 137% (inactive) |
| Cc1ccc(CNc2nc3ccccc3n3nnnc23)cc1 | 128% (inactive) |
| Cc1ccc(Cl)cc1N1CCN(C(=O)c2cc3c(=O)n(C)c4ccccc4c3n2C)CC1 | 26.8% (inactive) |
| Cc1oc(-c2ccc(Cl)cc2)nc1CN1CCC(C(=O)N2CCN(Cc3ccccc3)CC2)CC1 | 91.8% (inactive) |
| COc1ccc(-c2ccc(-c3noc(-c4ccccc4)n3)c(OC)n2)cc1 | 153% (inactive) |
| Cc1cc(C)nc(N2CCC(C(=O)Nc3ccc(Oc4ccccc4)cc3)CC2)n1 | 170% (inactive) |
| CCn1c(=O)cc(SCC(=O)NCCN2CCN(Cc3ccccc3)CC2)c2ccccc21 | 306% (inactive) |
| Cc1ccccc1-c1nc(CN2CCCC(C(=O)NCCCN3CCOCC3)C2)c(C)o1 (stereo not drawn) | 187% (inactive) |
| O=C(NCCCN1CCN(c2ccc(F)cc2)CC1)c1cccc(N2CCCC2=O)c1 | 191% (inactive) |
| O=C(Cn1cc2c(n1)CCCC2)NCCCN1CCN(c2ccccc2F)CC1 | 333% (inactive) |
| C[C@H]1CCC/C=C/C2C[C@H](O)CC2[C@H](O)/C=C/C(=O)O1 (stereo partly drawn) | 12.8% (inactive) |
| Cc1ccccc1-c1nc(CN2CCC(C(=O)NCCCN3CCCC3)CC2)c(C)o1 | 76.5% (inactive) |

| Compound | event count (lower = more killing) |
| --- | --- |
| CCCS(=O)(=O)N1CCCC(C(=O)NCCCN2CCN(c3ccc(F)cc3)CC2)C1 (stereo not drawn) | 238% (inactive) |
| Cc1ccccc1-c1nc(CN2CCC(C(=O)NCCCN3CC(C)CC(C)C3)CC2)c(C)o1 (stereo not drawn) | 108% (inactive) |
| CN(C)CCCN1c2ccccc2CCc2ccc(Cl)cc21 | 32.2% (inactive) |
| CCN1CCN(CCNC(=O)C2CCN(Cc3nc(-c4ccc(Cl)cc4)oc3C)CC2)CC1 | 83.2% (inactive) |
| Cn1c(=O)[nH]c(=O)c2c1nc(Br)n2CCCSc1nc2ccccc2o1 | 150% (inactive) |
| CCOC(=O)c1c(C)n(C)c2ccc(OCC(O)CNC(CC)CO)cc12 (stereo not drawn) | 115% (inactive) |
| O=C(CCN1C(=O)COc2ccccc21)NCCCN1CCN(c2ccc(F)cc2)CC1 | 279% (inactive) |
| CCn1c(=O)cc(SCC(=O)NCCCN2CCN(c3ccccc3F)CC2)c2ccccc21 | 210% (inactive) |
| CN(C)c1ccc(CNC2CC(C)(C)NC(C)(C)C2)cc1 | 284% (inactive) |
| COc1ccc(N2CCN(CCCNC(=O)c3cc4sccc4n3C)CC2)cc1 | 282% (inactive) |
| Cc1ccc(Nc2cc(=O)n(C3CCCCC3)c(=O)[nH]2)cc1C | 55.5% (inactive) |
| CC1CCCCN1CCNC(=O)c1cc2c(-c3ccccc3F)nn(C)c2s1 (stereo not drawn) | 103% (inactive) |
| CCN(CC)CCNC(=O)c1ccc(N2CCCCC2)c(NS(=O)(=O)c2ccc(C)cc2)c1 | 70.8% (inactive) |
| Cn1c(=O)cc(SCC(=O)NCCCN2CCN(c3ccccc3F)CC2)c2ccccc21 | 258% (inactive) |
| CCN1CCCC1CNC(=O)c1cc2c(-c3ccc(Cl)cc3)nn(C)c2s1 (stereo not drawn) | 27.8% (inactive) |
| CCN1CCN(c2ncc(C(=O)Nc3cc(Cl)c(OC)cc3OC)c3ccccc23)CC1 | 208% (inactive) |
| CCOc1ccc(NC(=O)COc2nsnc2N2CCCCC2)cc1 | 160% (inactive) |
| Cc1nc2ncnn2c(C)c1CCC(=O)NCCCN1CCN(c2cccc(Cl)c2)CC1 | 374% (inactive) |
| Cc1cccc(-c2nsc(SCC(=O)Nc3nccs3)n2)c1 | 296% (inactive) |
| Cc1ccc2c(c1)-c1c(cnn1CC(=O)Nc1ccccc1N1CCN(C)CC1)CO2 | 163% (inactive) |
| CN(CCNC(=O)C1CC(=O)N(c2ccc(F)c(Cl)c2)C1)Cc1ccccc1 (stereo not drawn) | 343% (inactive) |

From PubChem BioAssay AID1197 (NMMLSC, 2008)
